Assay results reported in PMC6836573, “Mitochondria-targeting fluorescent molecules for high efficiency cancer growth inhibition and imaging” (Chemical Science, 2019).
“Also recorded” adds a separate entry of the source.

Tests used:
bladder cancer T24 cell = experiment: Cytotoxicity assay (direct cell counting), T24; assay type: cell-based
Procedure: (§1) Cell culture, imaging, and cytotoxicity assay
(§2) RPMI-1640 medium. NIH/3T3 was cultured in DMEM medium. A549 was cultured in F-12K medium. T24 were cultured in McCoy's 5A medium. All culture mediums were supplemented with 10% fetal bovine serum. The cells were incubated at 37 °C in an atmosphere containing 5% CO 2. […]
(§3) Cytotoxicity assay. All test cell lines were incubated in 96-well plates overnight at a density of 3000 cells/well. The culture medium was replaced with 200 μL of culture medium, into which the testing compound was dispersed at various concentrations (1.95 - 500 μM). After incubating for 3 days, the viable cell numbers were checked and directly counted under microscopy (10X). A minimum of 1mm×1mm area was counted from each of at least three widely separated regions of cell culture. The cell proliferation rate was calculated by the following formula: cell proliferation rate (%) = (average cell number of sample wells / average cell number of control wells) ×100%.
(§4) The intact culture medium was evaluated as a control. […]

H1693 NSCLC cell line = experiment: Cytotoxicity assay, H1693; assay type: cell-based; details: Homo sapiens, NCI-H1693; H1693 cells
Procedure: as §1, §2, §3, §4

H1437 NSCLC cell line = experiment: Cytotoxicity assay, H1437; assay type: cell-based; details: Homo sapiens, NCI-H1437; H1437 cells
Procedure: as §1, §2, §3, §4

[1] = Self-assembly into nanoparticles (TEM, DLS); assay type: physicochemical; details: 1× pH 7.4 PBS, 5 mM to 0.125 mM
A549 NSCLC cell line = experiment: Cytotoxicity assay, A549; assay type: cell-based; details: Homo sapiens; A549 cells
Procedure: as §1, §2, §3, §4

HCC4006 NSCLC cell line = experiment: Cytotoxicity assay, HCC4006; assay type: cell-based; details: Homo sapiens; HCC4006 cells
Procedure: as §1, §2, §3, §4
(§5) All animal experiments were performed in compliance with the Guidelines for the Care and Use of Research Animals as established by the Stanford University Animal Studies Committee. Female athymic nude mice (nu/nu) from 4−6 weeks old were obtained from Charles River Laboratories (Boston, MA, USA) and kept under sterile conditions. 5 × 106 human lung adenocarcinoma

[2] = test system: human lung cancer HCC827 xenograft; experiment: HCC827 s.c. tumor model treatment; assay type: in vivo, nude mice
Procedure: HCC827 s.c. tumor model treatment and imaging
as §5, with “adenocarcinoma […]” for “adenocarcinoma”
HCC827 cells suspended in 150 µL of PBS were inoculated subcutaneously in the right shoulder […]
When the tumors reached ~3 mm in diameter, the tumor-bearing mice were administered i.v. with 5BMF (dissolved in 150 µL PBS, with 2 µL DMSO) at 15 mg/Kg on days 1, 3, 5, 7, 9, 11, 13, 15, 17, 19, 21. Correspondingly, untreated tumor-bearing mice serving as controls were administered i.v. with 150 µL 1× PBS pH 7.4 (with 2 µL DMSO) on the same days as the treated mice. Ten mice were used for each group. Length and width of the elliptical tumors were measured by Vernier caliper after every intravenous injection. Modified ellipsoid formula ½ (Length × Width2) was used to calculate the tumor size. The tumor growth was calculated with the ratio of final volume (FV) minus initial volume (IV) to initial volume (IV). […]
The tumor tissues and some important organs such as liver, kidney, lung, heart were isolated. After frozen, the specimens sectioned at 5-8 µm and processed for a standard hematoxylin-eosin (H&E) staining. Slides were viewed and photographed with the Nanozoomer Digital Pathology Image […]
The body weights of mice are presented as means ± standard deviation (SD) of n independent measurements. The tumor volumes are presented as means ± standard error of mean (SEM) of n independent measurements. Statistical analysis was performed using a Student’s t-test or Mann-Whitney U test. Statistical significance was assigned for P values <0.05. […]

H838 cells' mitochondria = experiment: Effect of membrane potential (high K+ medium, FCCP) on 5BMF accumulation; assay type: cell-based
Procedure: To verify that F16 derivatives preserve the same property, H838 cells were preincubated in high K^+ medium (137 mM) to depolarize the plasma membrane, then 5BMF (3 μM) was added and incubated for 30 min. […] As with other DLCs, the selectivity of F16s for mitochondria is driven by the negative transmembrane potential.[18]
Mitotracker® Red (Molecular Probes) and Hoechst (Thermo Scientific) were added to the medium to stain the mitochondria and nuclei, following the manufacturer’s procedures. Cells were photographed as previously described using a 63× oil or 20× objective lens.
The effect of membrane potential on 5BMF accumulation was performed through staining HCC827 cells in low K+ and high K+ buffer, instead of RPMI-1640 culture medium. Low K+ buffer contains 137 mM NaCl, 3.6 mM KCI, 0.5 mM MgCl2, 1.8 mM CaCl2 of RPMI-1640 medium (GIBCO). […]
Cytotoxicity assay. […] After incubating for 3 days, the viable cell numbers were checked and directly counted under microscopy (10X). A minimum of 1mm×1mm area was counted from each of at least three widely separated regions of cell culture. The cell proliferation rate was calculated by the following formula: cell proliferation rate (%) = (average cell number of sample wells / average cell number of control wells) ×100%.
as §4

NSCLC H838 cell = experiment: Cytotoxicity assay (direct cell counting), H838; assay type: cell-based; details: Homo sapiens, NCI-H838, 72 h, H838 cells; 3 days incubation, viable cells counted
Procedure: as §1, §2, §3, §4, §5

H2030 NSCLC cell line = experiment: Cytotoxicity assay, H2030; assay type: cell-based; details: Homo sapiens, NCI-H2030; H2030 cells
Procedure: as §1, §2, §3, §4

H2228 NSCLC cell line = experiment: Cytotoxicity assay, H2228; assay type: cell-based; details: Homo sapiens, NCI-H2228, H2228 cells
Procedure: as §1, §2, §3, §4, §5

HCC827 NSCLC cell line = experiment: Cytotoxicity assay, HCC827; assay type: cell-based; details: Homo sapiens; HCC827 cells
Procedure: as §1, §2, §3, §4

[3] = Cytotoxicity assay (direct cell counting), NIH-3T3; assay type: cell-based; details: mouse; NIH-3T3 normal cells; 3 days incubation, viable cells counted
Procedure: as §1, §2, §3, §4

Cc1cc(Br)cc2c(/C=C/c3cc[n+](C)cc3)c[nH]c12 [5BMF]
selectivity indices (bladder cancer T24 cell; 3T3 versus T24 and H838): > 10 | IC50 (bladder cancer T24 cell; Homo sapiens, T-24, 72 h, T24 cells, 3 days incubation, viable cells counted): 820 nM | IC50 (H1693 NSCLC cell line): 1180 nM | IC50 (H1437 NSCLC cell line): 1430 nM | size of self-assembled nanoparticles [1]: ~120 nm | IC50 (A549 NSCLC cell line): 727 nM | IC50 (HCC4006 NSCLC cell line): 106 nM | day from which inhibitory tumor growth effects appeared ([2]; 15 mg/kg IV every other day): 9 days | increase of mean tumor volume after the 21 day-treatment period ([2]; 15 mg/kg IV every other day, day 1-21, n = 10, PBS control ∼16 times): ~2 times | toxicity to mice ([2]; 15 mg/kg IV, 21 days of treatment): no obvious toxicity | tumor growth compared to the PBS treated control group ([2]; 15 mg/kg IV, 21 days, p = 0.0426 at day 21): significantly suppressed; also recorded: suppressed dramatically; also recorded: decreased dramatically | body weight between control and treated groups ([2]; 15 mg/kg IV, 21 days, p = 0.477): no significant difference | major organs' histologic examination (H&E) ([2]; 15 mg/kg IV, over four weeks, compared to control): did not reveal any significant microscopic lesions | tumor pathologic section H&E staining ([2]; HCC827 tumor, 5BMF-treated): caused tumor inflammatory cell infiltration, fibrous tissue proliferation, and cell apoptosis | accumulation in mitochondria in high K+ medium versus low K+ medium (H838 cells' mitochondria; H838 cells, 3 μM, 30 min, high K+ 137 mM, low K+ 3.6 mM): much less 5BMF accumulation in mitochondria | mitochondrial staining after addition of FCCP (H838 cells' mitochondria; cells preloaded with 5BMF, FCCP 5 µM, 1 and 3 min): immediately decayed and diffused into the cytoplasm | IC50 (NSCLC H838 cell): 360 nM | IC50 (H2030 NSCLC cell line): 102 nM | IC50 (H2228 NSCLC cell line): ~50 nM | IC50 (HCC827 NSCLC cell line): 1990 nM | IC50 at 3 days [3]: 11000 nM
